Values quoted from earlier work, collected in patent US10155776B2, “Method for selective detection and estimation of histidine and cystein” (Council of Scientific and Industrial Research, priority 2014, dated 2018).

| SMILES | pKa value of the thiol group in the side chain |
| --- | --- |
| N[C@@H](CCC(=O)N[C@@H](CS)C(=O)NCC(=O)O)C(=O)O [glutathione] | 9.20 |
| N[C@@H](CCS)C(=O)O [homocysteine] | 8.87 |
